The values below come from PMC5848165 (Toxins, 2018).

“Also recorded” adds a separate entry of the source. Residues, ends and D or L forms follow the SMILES beside them.

One assay deals with Nav1.2. In words: Whole-cell patch clamp, Nav1.2 in HEK293 cells. In kind it is cell-based, rat. As to conditions: 1 µM, −10 mV from −80 mV. An excerpt: (§1) Nine sodium channel subtypes have been identified and classified as TTX-S (Nav1.1–Nav1.4, Nav1.6, and Nav1.7) or TTX-R types (Nav1.5, Nav1.8, and Nav1.9). […] However, the subtype selectivity of JZTX-34 on the subtype of sodium channel is still unknown. In this work, effects of JZTX-34 on VGSC subtypes (Nav1.1–Nav1.8) were examined. Nav1.1–Nav1.7 were transfected into HEK293 cells and Nav1.8 currents were expressed in ND cells. Inward sodium currents were elicited by a 50 ms depolarizing potential to −10 mV from a holding potential of −80 mV every 5 s. […] No effects on other sodium channel subtypes were found (Nav1.1, Nav1.2, Nav1.4–Nav1.6, and Nav1.8) (Figure S2). […]
(§2) The HEK293T cells were maintained in standard culture conditions (5% CO2 and 37 °C). […] After culturing for 36–72 h, cells with obvious green fluorescence were selected for sodium currents recordings the internal solution for sodium currents recording that contained (in mM) 140 CsF, 5 NaCl, 10 HEPES, 3 Na2-ATP, and 10 EGTA. […]
(§3) Sodium currents were recorded from DRG, HEK293, and ND cells by the whole-cell patch-clamp technique at 25 °C. […] Experiments date were acquired from whole-cell Axon 700B patch clamp amplifier (Molecular Devices, Sunnyvale, CA, USA) and analyzed by the program Clampfit10.0 (Molecular Devices, Sunnyvale, CA, USA) and Sigmaplot. […]
(Patch clamp records ionic current or voltage across a cell membrane.)

The next assay relates to Nav1.4. The assay can be described thus: Whole-cell patch clamp, Nav1.4 in HEK293 cells. As to conditions: 1 µM, −10 mV from −80 mV. In kind it is cell-based, rat.
Source text: as §1, §2, §3

The subject of assay [1] is WT Nav1.7, domain II voltage sensor. In words: Voltage sensor trapping test on WT Nav1.7 (patch clamp pulse protocols). In kind it is cell-based, human. As to conditions: 10 µM. The protocol:
It has been proven that scorpion β-toxins trapped the domain II S4 voltage sensor in the outward position. However, HWTX-IV inhibited sodium channels by trapping voltage sensor in a closed configuration [15]. We wondered whether JZTX-34 blocked sodium channels in a resting state or an outward position. The current traces were recorded by a 50 ms depolarizing pulse of −10 mV from a holding potential of −80 mV. At first, 10 µM JZTX-34 was added to cells and incubated for 5 min. Then, the currents were elicited by the protocol described before. […] To further confirm this, the same protocol described by Cestele et al. was used to assess whether JZTX-34 traps the domain II S4 voltage sensor of the WT Nav1.7 in a closed position. A 15 ms test pulse to 0 mV was applied from a holding potential of −80 mV and was followed by a 1 ms conditioning pulse to +50 mV. Then, a 15 ms test pulse to −65 mV was used to detect whether the currents were elicited.
Figure 5 JZTX-34 traps the domain II voltage sensor in closed configuration. (A) Nav1.7 current traces were elicited by a protocol as following. First, an inward sodium currents were elicited by a 50 ms depolarizing potential to 0 mV from a holding potential of −80 mV every 5 s. Second, 10 μM JZTX-34 were added to bath solution. Finally, the same pulse protocol was applied to elicit inward currents after a 5 min toxin treatment. (B) The current traces 0, 15 ms, 100 ms, and 5 min after toxin treatment are shown, which were elicited by a protocol as shown in C. (C) This pulse protocol was included three phases and applied every 5 s. […]
as §2
Sodium currents were recorded from DRG, HEK293, and ND cells by the whole-cell patch-clamp technique at 25 °C. […]

Another assay concerns Nav1.5. In words: Whole-cell patch clamp, WT Nav1.5 in HEK293 cells. In kind it is cell-based, rat. The settings on record: 1 µM, −10 mV from −80 mV.
Source text: as §1, §2, §3

Turning to `CC(C)C[C@@H]1NC(=O)[C@H](Cc2c[nH]c3ccccc23)NC(=O)[C@H](CCC(=O)O)NC(=O)[C@H](CCCNC(=N)N)NC(=O)[C@@H](NC(=O)[C@H](C)N)CSSC[C@@H]2NC(=O)[C@@H]3CSSC[C@@H](C(=O)N[C@H](C(=O)N[C@@H](Cc4c[nH]c5ccccc45)C(=O)N[C@@H](CC(=O)O)C(=O)N[C@@H](Cc4c[nH]c5ccccc45)C(=O)N[C@H](C(=O)N[C@H](C(=O)O)C(C)C)[C@@H](C)O)C(C)C)NC(=O)[C@H](Cc4c[nH]cn4)NC(=O)[C@H](Cc4ccc(O)cc4)NC(=O)[C@@H]4CCCN4C(=O)[C@H](Cc4c[nH]c5ccccc45)NC(=O)[C@H](CCCCN)NC(=O)[C@H](CCCCN)NC(=O)[C@H](CCCNC(=N)N)NC(=O)[C@H](CSSC[C@H](NC(=O)CNC(=O)CNC1=O)C(=O)N[C@@H](CO)C(=O)N[C@@H](CCCCN)C(=O)N[C@@H](CC(=O)O)C(=O)N[C@@H](C)C(=O)N[C@@H](CC(=O)O)C(=O)N3)NC(=O)[C@H](CCC(=O)O)NC(=O)[C@H](CC(C)C)NC(=O)[C@H](Cc1c[nH]cn1)NC(=O)[C@H](C)NC2=O` [JZTX-34, Jingzhaotoxin-34] (HELM PEPTIDE1{A.C.R.E.W.L.G.G.C.S.K.D.A.D.C.C.A.H.L.E.C.R.K.K.W.P.Y.H.C.V.W.D.W.T.V}$PEPTIDE1,PEPTIDE1,2:R3-16:R3|PEPTIDE1,PEPTIDE1,9:R3-21:R3|PEPTIDE1,PEPTIDE1,15:R3-29:R3$$$V2.0; N-terminus and C-terminus assumed), the “effect on Nav1.2 currents” value with Nav1.2 is “No effects”. In addition, the “effect on Nav1.4 currents” value in the assay with Nav1.4 is listed as “No effects”. Further, the “inhibition at first pulse after incubation at rest” value in assay [1] (5 min incubation, −10 mV (legend: 0 mV) from −80 mV) is listed as “currents were significantly inhibited at the first pulse”. Moreover, in assay [1] (15 ms test pulse to 0 mV from −80 mV), the “current amplitude at first test pulse (0 mV)” value is given as “greatly depressed in a time-dependent manner”. Moreover, the “inward current at second test pulse (−65 mV)” value in assay [1] (after 1 ms conditioning pulse to +50 mV) is recorded as “no inward current was observed”. Moreover, the “effect on Nav1.5 currents” value in the assay on Nav1.5 is on record as “No effects; also recorded: resistant”.
